Test results reported in patent publication US10166218B2, “3-(1H-indol-2-yl)-1H-pyrazolo[3,4-C]pyridines and therapeutic uses thereof” (Samumed, LLC, priority 2015, dated 2019).

How the values were obtained:
Type in all cases: cell-based
[1] = test system: Wnt activity (Sp5-Luc reporter, TCF/LEF binding sites) in SW480 colon carcinoma cells; assay: Screening assay for Wnt activity: Sp5-Luc reporter gene assay in stably transduced SW480 cells; conditions: Homo sapiens; for EC50: overnight incubation; for inhibition at 10 µM: read-out: percent inhibition at 10 μM (given for EC50 of >10 μM)
Method in brief: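 Luminescence read-out (BrightGlo) from stable Sp5-Luc SW480 cells, normalized to DMSO-only wells. Cells were treated overnight at 37° C in 1% FBS medium across a 1:3, 10-point series starting at 10 μM. EC50 from variable-slope four-parameter regression; percent inhibition at 10 μM given where EC50 >10 μM.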

IL-6 (THP-1 cells) = assay: Inhibition of IL-6 in LPS-stimulated THP-1 human monocyte cells (HTRF); conditions: for EC50: inhibition of IL-6 in LPS-stimulated THP-1 cells, HTRF, 10-point dose-response starting from 10 μM; for inhibition at 10 µM: IL-6 assay in LPS-stimulated THP-1 cells, given only where EC50 >10 μM, meaning not given (top concentration 10 μM), read-out: percentage given in parentheses after EC50 >10
Method in brief: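 THP-1 cells, serum-reduced (1% FBS) for 24 h, were preincubated with compound (10-point 1:3 series from 10 μM, 0.1% DMSO) for 2 h, then stimulated with 500 ng/mL LPS for 22 h at 37° C. IL-6 was read by HTRF (665/620 nm ratio) and normalized to DMSO. EC50 from four-parameter fit; % inhibition at 10 μM given if EC50 >10 μM.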

SW480 colon cancer cells = assay: Cell viability assay (CellTiter-Blue) in SW480 colon cancer cells; conditions: Homo sapiens, 96 h, four days; for EC50: CellTiter-Blue; for inhibition at 10 µM: read-out: percent inhibition at 10 μM (given for EC50 of >10 μM)
Method in brief: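 SW480 colon cancer cells (~2×10^3/well) exposed to 8-point 1:3 dilutions from 10 μM to 0.0045 μM for four days at 37 °C/5% CO2. Viability read by resazurin (CellTiter-Blue) fluorescence after ~3 h, Ex 560/Em 590 nm. EC50 from non-linear regression; percent inhibition at 10 μM given when EC50 >10 μM.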

EC50 [1] [µM]	EC50 (IL-6 (THP-1 cells)) [µM]	EC50 (SW480 colon cancer cells) [µM]	SMILES	inhibition at 10 µM (SW480 colon cancer cells) [%]	inhibition at 10 µM (IL-6 (THP-1 cells)) [%]	inhibition at 10 µM [1] [%]
0.047	0.344	2.56	Cn1cc(-c2cc3c(-c4cc5ncccc5[nH]4)n[nH]c3cn2)cn1 [Compound 1022, 5-(1-Methyl-1H-pyrazol-4-yl)-3-(1H-pyrrolo[3,2-b]pyridin-2-yl)-1H-pyrazolo[3,4-c]pyridine]	–	–	–
2.31	0.999	> 10	c1cnc2cc(-c3n[nH]c4cnc(-c5cncc(CNCC6CCCC6)c5)cc34)[nH]c2c1 [Compound 529, 1-(5-(3-(1H-Pyrrolo[3,2-b]pyridin-2-yl)-1H-pyrazolo[3,4-c]pyridin-5-yl)pyridin-3-yl)-N-(cyclopentylmethyl)methanamine]	0	–	–
0.7	0.753	1.95	CC(C)C(=O)Nc1cncc(-c2cc3c(-c4cc5c(N6CCN(C)CC6)cccc5[nH]4)n[nH]c3cn2)c1 [Compound 233]	–	–	–
4.14	9.59	> 10	Fc1ccc(-c2cccc3[nH]c(-c4n[nH]c5cnc(-c6cncnc6)cc45)cc23)cc1 [Compound 55, 3-(4-(4-Fluorophenyl)-1H-indol-2-yl)-5-(pyrimidin-5-yl)-1H-pyrazolo[3,4-c]pyridine]	13.6	–	–
0.194	2.5	> 10	CC(C)(C)C(=O)Nc1cncc(-c2cc3c(-c4cc5c(-c6ccncc6)cccc5[nH]4)n[nH]c3cn2)c1 [Compound 120, N-(5-(3-(4-(Pyridin-4-yl)-1H-indol-2-yl)-1H-pyrazolo[3,4-c]pyridin-5-yl)pyridin-3-yl)pivalamide]	32.2	–	–
0.94	> 10	6.55	O=C(Nc1cncc(-c2cc3c(-c4cc5c(-c6ccccc6F)cccc5[nH]4)n[nH]c3cn2)c1)C1CC1 [Compound 76, N-(5-(3-(4-(2-Fluorophenyl)-1H-indol-2-yl)-1H-pyrazolo[3,4-c]pyridin-5-yl)pyridin-3-yl)cyclopropanecarboxamide]	–	11.1	–
3.84	> 10	> 10	c1cc(N2CCCCC2)c2cc(-c3n[nH]c4cnc(-c5cncc(OC6CCCCC6)c5)cc34)[nH]c2c1 [Compound 635, 5-(5-(Cyclohexyloxy)pyridin-3-yl)-3-(4-(piperidin-1-yl)-1H-indol-2-yl)-1H-pyrazolo[3,4-c]pyridine]	26.8	0	–
> 10	3.21	5.42	O=C(Nc1cncc(-c2cc3c(-c4cc5c(-c6cccc(F)c6)cccc5[nH]4)n[nH]c3cn2)c1)c1ccccc1 [Compound 11, N-(5-(3-(4-(3-Fluorophenyl)-1H-indol-2-yl)-1H-pyrazolo[3,4-c]pyridin-5-yl)pyridin-3-yl)benzamide]	–	–	50.2
3.06	2.45	> 10	CN(C)CCOc1cncc(-c2cc3c(-c4cc5ncccc5[nH]4)n[nH]c3cn2)c1 [Compound 1029, 2-((5-(3-(1H-Pyrrolo[3,2-b]pyridin-2-yl)-1H-pyrazolo[3,4-c]pyridin-5-yl)pyridin-3-yl)oxy)-N,N-dimethylethan-1-amine]	17.1	–	–
> 10	> 10	> 10	Cc1ccncc1-c1cc2c(-c3cc4c(-c5ccncc5)cccc4[nH]3)n[nH]c2cn1 [Compound 117, 5-(4-Methylpyridin-3-yl)-3-(4-(pyridin-4-yl)-1H-indol-2-yl)-1H-pyrazolo [3,4-c]pyridine]	16.6	53	43.1
> 10	> 10	> 10	CC(C)(C)CC(=O)Nc1cncc(-c2cc3c(-c4cc5c(-c6ccncc6)cccc5[nH]4)n[nH]c3cn2)c1 [Compound 128, 3,3-Dimethyl-N-(5-(3-(4-(pyridin-4-yl)-1H-indol-2-yl)-1H-pyrazolo[3,4-c]pyridin-5-yl)pyridin-3-yl)butanamide]	14	0	46.5
